This assay deals with T1, GID4 (Uniprot ID: Q81VV7, residues 124-289) (Homo sapiens, UniProt Q8IVV7).
T1 construct: GID4 (Uniprot ID: Q81VV7, residues 124-289)
T1 sequence (Q8IVV7 124-289): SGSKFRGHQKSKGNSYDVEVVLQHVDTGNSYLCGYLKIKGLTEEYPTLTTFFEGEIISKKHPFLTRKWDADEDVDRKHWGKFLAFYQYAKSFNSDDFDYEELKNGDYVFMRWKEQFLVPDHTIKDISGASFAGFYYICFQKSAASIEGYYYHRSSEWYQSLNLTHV
In words: GID4 competitive binding assay (AlphaScreen, GID4/degron peptide PGLW). Conditions: 24 nM GID4, 48 nM biotinylated degron peptide PGLW, 4° C., read-out: IC50 (Inhibition of GID4/Degron binding by test compounds). The method, boiled down: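 Displacement of biotin-tagged degron tetrapeptide PGLW (48 nM) from C-terminally 6His-tagged GID4 124-289 (24 nM) read by AlphaScreen proximity signal. Compound incubation 2 h, then beads 1 h, all at 4 °C, pH 7.5, 2% DMSO final; background-corrected inhibition fitted with variable slope for IC50.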
On to `Cc1c(-c2ccc(Br)c(C3CN(c4cc(N)nc(N)n4)CCN3)c2)cnn1C` (single isomer, unassigned) [Compound 4, (R/S)-6-(3-(2-bromo-5-(1,5-dimethyl-1H-pyrazol-4-yl)phenyl)piperazin-1-yl)pyrimidine-2,4-diamine], for which the IC50 lay in the range of 0.5 to 5 µM.
For `CNc1cc(N2CCN(C)[C@@H](c3ccccc3Br)C2)nc(N)n1` (stereo in doubt) [Compound 155, (S/R)-6-(3-(2-bromophenyl)-4-methylpiperazin-1-yl)-N4-methylpyrimidine-2,4-diamine], the IC50 was below 0.5 µM.
As to `CC(C)c1cc(N2CCC=C(c3ncn4ccccc34)C2)nc(N)n1` [Compound 238, 4-(5-(imidazo[1,5-a]pyridin-1-yl)-3,6-dihydropyridin-1(2H)-yl)-6-isopropylpyrimidin-2-amine], the IC50 was in the range of 0.5 to 5 µM.
As to `Brc1ccccc1C1CN(c2cc(NC3CC3)ncn2)CCN1` (centres unmarked) [Compound 79, 6-(3-(2-bromophenyl)piperazin-1-yl)-N-cyclopropylpyrimidin-4-amine], the IC50 is above 5 µM.
In the case of `Nc1nc2c(c(N3CCCC(c4ccn[nH]4)C3)n1)COCC2` (centres unmarked) [Compound 196, 4-(3-(1H-pyrazol-5-yl)piperidin-1-yl)-7,8-dihydro-5H-pyrano[4,3-d]pyrimidin-2-amine] it was above 5 µM; in that of `CC(C)c1cc(N2CCC(c3cnc4ccccn34)C2)nc(N)n1` (centres unmarked) [Compound 253, 4-(3-(imidazo[1,2-a]pyridin-3-yl)pyrrolidin-1-yl)-6-isopropylpyrimidin-2-amine], 0.5 to 5 µM; in that of `CC(C)c1cc(N2CCNC(c3cnc4ccccn34)C2)c2cc[nH]c2n1` (single isomer, unassigned) [Compound 372, (S/R)-3-(4-(6-isopropyl-1H-pyrrolo[2,3-b]pyridin-4-yl)piperazin-2-yl)imidazo[1,2-a]pyridine], below 0.5 µM.
With `Nc1nc(NCC2CC2)cc(N2CCNC(c3ccccc3Br)C2)n1` (single isomer, unassigned) [Compound 111, (R/S)-6-(3-(2-bromophenyl)piperazin-1-yl)-N4-(cyclopropylmethyl)pyrimidine-2,4-diamine], the IC50 lay in the range of 0.5 to 5 µM.
For the compound `O=C(c1cccc(-c2ccc3c(=O)[nH]ccc3c2)c1)N1CCCC1` [Compound 352, 6-(3-(pyrrolidine-1-carbonyl)phenyl)isoquinolin-1(2H)-one], the IC50 is 0.5 to 5 µM.
Regarding `CC(C)c1cc(N2CCNC(c3cccc(F)c3Br)C2)nc(N)n1` (centres unmarked) [Compound 169, 4-(3-(2-bromo-3-fluorophenyl)piperazin-1-yl)-6-isopropylpyrimidin-2-amine], the IC50 is below 0.5 µM.
Consider `CN(C)[C@H]1CC[C@@H](NC(=O)c2ccc(-c3cc(O)c4ncccc4c3)cc2)CC1` [Compound 286, N-(cis-4-(dimethylamino)cyclohexyl)-4-(8-hydroxyquinolin-6-yl)benzamide], for which the IC50 was below 0.5 µM.
As for `CC(C)c1nc(N)cc(N2CCN[C@@H](c3ccccc3Br)C2)n1` (racemic) [Compound 75, (S/R)-6-(3-(2-bromophenyl)piperazin-1-yl)-2-isopropylpyrimidin-4-amine], the IC50 was in the range of 0.5 to 5 µM.
In the case of `Nc1nccc2ccc(-c3ccc4[nH][nH]c(=O)c4c3)cc12` [Compound 1, 5-(1-aminoisoquinolin-7-yl)-1,2-dihydro-3H-indazol-3-one] it was 0.5 to 5 µM; in that of `Cn1nccc1-c1cc(N2CC3CC(C2)N3)nc2c(-c3cc[nH]n3)nccc12` [Compound 365, 3-(4-(1-methyl-1H-pyrazol-5-yl)-8-(1H-pyrazol-3-yl)-1,7-naphthyridin-2-yl)-3,6-diazabicyclo[3.1.1]heptane], 0.5 to 5 µM.
As to `Nc1cc(N2CCO[C@@](CO)(c3ccccc3Br)C2)nc(N)n1` (stereo in doubt) [Compound 37, (S/R)-(2-(2-bromophenyl)-4-(2,6-diaminopyrimidin-4-yl)morpholin-2-yl)methanol], the IC50 was below 0.5 µM.
To `Nc1nccc2ccc(-c3cccc(C(=O)N4CCCC4)c3)cc12` [Compound 353, (3-(1-aminoisoquinolin-7-yl)phenyl)(pyrrolidin-1-yl)methanone] belongs 0.5 to 5 µM.
As to `CNc1cc(N2CCNC(c3csc4ccccc34)C2)nc(N)n1` (centres unmarked) [Compound 102, 6-(3-(benzo[b]thiophen-3-yl)piperazin-1-yl)-N4-methylpyrimidine-2,4-diamine], the IC50 was 0.5 to 5 µM.
On to `CC(C)c1cc(N2CCOC(c3ccccc3Br)C2)nc(N)n1` (racemic) [Compound 158, (R/S)-4-(2-(2-bromophenyl)morpholino)-6-isopropylpyrimidin-2-amine], for which the IC50 was above 5 µM.
In the case of `CN(C)C1CCN(C(=O)c2cccc(-c3ccc4c(=O)[nH]ccc4c3)c2)C1` (centres unmarked) [Compound 350, 6-(3-(3-(dimethylamino)pyrrolidine-1-carbonyl)phenyl)isoquinolin-1(2H)-one] it was above 5 µM; in that of `CNc1cc(N2CCC[C@H](c3ccccc3Br)C2)nc(N)n1` (stereo in doubt) [Compound 86, (R/S)-6-(3-(2-bromophenyl)piperidin-1-yl)-N4-methylpyrimidine-2,4-diamine], 0.5 to 5 µM.
As for `Nc1cc(N2CCN[C@@H](c3cc(C(F)(F)F)ccc3Br)C2)nc(N)n1` (racemic) [Compound 12, (S/R)-6-(3-(2-bromo-5-(trifluoromethyl)phenyl)piperazin-1-yl)pyrimidine-2,4-diamine], the IC50 is below 0.5 µM.
On to `CNc1cc(N2CCN(C)C(c3ccccc3)C2)nc(N)n1` (centres unmarked) [Compound 110, N4-methyl-6-(4-methyl-3-phenylpiperazin-1-yl)pyrimidine-2,4-diamine], for which the IC50 fell in the range of 0.5 to 5 µM.
Consider `CC(C)c1cc(N2CCNC(c3nnc4ccccn34)C2)nc(N)n1` (centres unmarked) [Compound 188, 4-(3-([1,2,4]triazolo[4,3-a]pyridin-3-yl)piperazin-1-yl)-6-isopropylpyrimidin-2-amine], for which the IC50 was above 5 µM.
Consider `CN(C)CCCNC(=O)c1cc(F)c(-c2cc(O)c3ncccc3c2)cc1F` [Compound 316, N-(3-(dimethylamino)propyl)-2,5-difluoro-4-(8-hydroxyquinolin-6-yl)benzamide], for which the IC50 is below 0.5 µM.
On to `CN(C)CCCNC(=O)c1ccc2c(-c3ccc4ccnc(N)c4c3)c[nH]c2c1` [Compound 359, 3-(1-aminoisoquinolin-7-yl)-N-(3-(dimethylamino)propyl)-1H-indole-6-carboxamide], for which the IC50 was 0.5 to 5 µM.
For `CN(C)CCNC(=O)c1c2cc(-c3ccc4ccnc(N)c4c3)ccc2nn1C` [Compound 360, 5-(1-aminoisoquinolin-7-yl)-N-(2-(dimethylamino)ethyl)-2-methyl-2H-indazole-3-carboxamide], the IC50 was above 5 µM.
For `Nc1nc(N2CCCC(c3ccn[nH]3)C2)c2cnccc2n1` (centres unmarked) [Compound 218, 4-(3-(1H-pyrazol-5-yl)piperidin-1-yl)pyrido[4,3-d]pyrimidin-2-amine], the IC50 is above 5 µM.
For the compound `CNC(=O)CCC1CCCN(c2nc(N)nc3c2CCCN3)C1` (centres unmarked) [Compound 140, 3-(1-(2-amino-5,6,7,8-tetrahydropyrido[2,3-d]pyrimidin-4-yl)piperidin-3-yl)-N-methylpropanamide], the IC50 was 0.5 to 5 µM.
For `Nc1nc(N2CCCC(c3ccn[nH]3)C2)c2cc[nH]c2n1` (centres unmarked) [Compound 205, 4-(3-(1H-pyrazol-5-yl)piperidin-1-yl)-7H-pyrrolo[2,3-d]pyrimidin-2-amine], the IC50 is above 5 µM.
For the compound `Nc1cc(N2CCC(c3cnc4ccccn34)C2)nc(N)n1` (centres unmarked) [Compound 255, 6-(3-(imidazo[1,2-a]pyridin-3-yl)pyrrolidin-1-yl)pyrimidine-2,4-diamine], the IC50 was 0.5 to 5 µM.
For the compound `Cc1nc(N)nc(N2CCCC(c3ccn[nH]3)C2)c1Br` (centres unmarked) [Compound 216, 4-(3-(1H-pyrazol-5-yl)piperidin-1-yl)-5-bromo-6-methylpyrimidin-2-amine], the IC50 was above 5 µM.
For the compound `CC(C)c1cc(N2CCN(C)C(c3cnc4ccccn34)C2)nc(N)n1` (single isomer, unassigned) [Compound 105, (S/R)-4-(3-(imidazo[1,2-a]pyridin-3-yl)-4-methylpiperazin-1-yl)-6-isopropylpyrimidin-2-amine], the IC50 was above 5 µM.
As for `CC(C)c1cc(N2CCNC(c3ccccc3Cl)C2)nc(N)n1` (centres unmarked) [Compound 175, 4-(3-(2-chlorophenyl)piperazin-1-yl)-6-isopropylpyrimidin-2-amine], the IC50 fell in the range of 0.5 to 5 µM.
Turning to `CN(C)CCCNC(=O)c1ccc(-c2cc(O)c3nc(N)ccc3c2)cc1` [Compound 261, 4-(2-amino-8-hydroxyquinolin-6-yl)-N-(3-(dimethylamino)propyl)benzamide], the IC50 was below 0.5 µM.
`CC(C)c1cc(N2CCNC(c3cc(N4CC(CO)C4)ccc3Br)C2)nc(N)n1` (single isomer, unassigned) [Compound 31, (S/R)-(1-(3-(4-(2-amino-6-isopropylpyrimidin-4-yl)piperazin-2-yl)-4-bromophenyl)azetidin-3-yl)methanol]: the IC50 lay in the range of 0.5 to 5 µM.
For the compound `CC(C)c1cc(N2CCn3cncc3C2)nc(N)n1` [Compound 182, 4-(5,6-dihydroimidazo[1,5-a]pyrazin-7(8H)-yl)-6-isopropylpyrimidin-2-amine], the IC50 was above 5 µM.
For `CN1CCC(CNC(=O)c2ccc(-c3cc(O)c4ncccc4c3)cc2)CC1` [Compound 300, 4-(8-hydroxyquinolin-6-yl)-N-((1-methylpiperidin-4-yl)methyl)benzamide], the IC50 is below 0.5 µM.
For the compound `CN(C)CCCNC(=O)c1ccc(-c2cc(O)c3ncccc3c2)c(Br)c1` [Compound 323, 3-bromo-N-(3-(dimethylamino)propyl)-4-(8-hydroxyquinolin-6-yl)benzamide], the IC50 is 0.5 to 5 µM.

The values are drawn from patent US20240132464A1, “HETEROCYCLIC COMPOUNDS AS E3 LIGASE INHIBITORS” (Accutar Biotechnology Inc., priority 2022, published 2024).
